Laboratory results published in article PMC4977286 (Frontiers in Pharmacology, 2016).
Where two headings read alike, the source gives them in different places.

Columns and labels:
rat liver microsomes = settings: for TNP-G formation, Liver microsome: rat
UGT1A1 = biological target: T1, UGT1A1 (Homo sapiens, UniProt P22309)
T1 sequence (P22309 26-533): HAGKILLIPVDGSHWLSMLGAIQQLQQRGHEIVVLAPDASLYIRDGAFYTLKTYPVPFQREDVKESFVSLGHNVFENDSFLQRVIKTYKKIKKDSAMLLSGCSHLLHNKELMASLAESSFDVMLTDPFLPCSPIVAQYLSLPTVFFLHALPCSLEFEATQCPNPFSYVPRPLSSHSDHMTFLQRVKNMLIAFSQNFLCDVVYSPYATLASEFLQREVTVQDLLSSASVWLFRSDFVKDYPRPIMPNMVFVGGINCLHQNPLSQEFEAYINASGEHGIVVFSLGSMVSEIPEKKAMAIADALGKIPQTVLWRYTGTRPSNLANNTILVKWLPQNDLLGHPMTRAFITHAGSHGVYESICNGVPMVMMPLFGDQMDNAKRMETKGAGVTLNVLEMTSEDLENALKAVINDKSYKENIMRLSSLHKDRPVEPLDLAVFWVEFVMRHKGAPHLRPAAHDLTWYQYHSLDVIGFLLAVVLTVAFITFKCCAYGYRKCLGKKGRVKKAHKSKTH

MRP2 [1] = biological target: MRP2 (Rattus norvegicus, UniProt Q63120); assay: Bile clearance of TNP-G in SCRH with MRP2 inhibitors or inducer; settings: for BEI of TNP-G, % of the control cells: TNP-G 20 μM; for BEI of TNP-G, % of the control cells / CLbile, int of TNP-G decreased by: inhibitor 100 μM
MRP2 (Rattus norvegicus, UniProt Q63120), sequence (Q63120 whole entry): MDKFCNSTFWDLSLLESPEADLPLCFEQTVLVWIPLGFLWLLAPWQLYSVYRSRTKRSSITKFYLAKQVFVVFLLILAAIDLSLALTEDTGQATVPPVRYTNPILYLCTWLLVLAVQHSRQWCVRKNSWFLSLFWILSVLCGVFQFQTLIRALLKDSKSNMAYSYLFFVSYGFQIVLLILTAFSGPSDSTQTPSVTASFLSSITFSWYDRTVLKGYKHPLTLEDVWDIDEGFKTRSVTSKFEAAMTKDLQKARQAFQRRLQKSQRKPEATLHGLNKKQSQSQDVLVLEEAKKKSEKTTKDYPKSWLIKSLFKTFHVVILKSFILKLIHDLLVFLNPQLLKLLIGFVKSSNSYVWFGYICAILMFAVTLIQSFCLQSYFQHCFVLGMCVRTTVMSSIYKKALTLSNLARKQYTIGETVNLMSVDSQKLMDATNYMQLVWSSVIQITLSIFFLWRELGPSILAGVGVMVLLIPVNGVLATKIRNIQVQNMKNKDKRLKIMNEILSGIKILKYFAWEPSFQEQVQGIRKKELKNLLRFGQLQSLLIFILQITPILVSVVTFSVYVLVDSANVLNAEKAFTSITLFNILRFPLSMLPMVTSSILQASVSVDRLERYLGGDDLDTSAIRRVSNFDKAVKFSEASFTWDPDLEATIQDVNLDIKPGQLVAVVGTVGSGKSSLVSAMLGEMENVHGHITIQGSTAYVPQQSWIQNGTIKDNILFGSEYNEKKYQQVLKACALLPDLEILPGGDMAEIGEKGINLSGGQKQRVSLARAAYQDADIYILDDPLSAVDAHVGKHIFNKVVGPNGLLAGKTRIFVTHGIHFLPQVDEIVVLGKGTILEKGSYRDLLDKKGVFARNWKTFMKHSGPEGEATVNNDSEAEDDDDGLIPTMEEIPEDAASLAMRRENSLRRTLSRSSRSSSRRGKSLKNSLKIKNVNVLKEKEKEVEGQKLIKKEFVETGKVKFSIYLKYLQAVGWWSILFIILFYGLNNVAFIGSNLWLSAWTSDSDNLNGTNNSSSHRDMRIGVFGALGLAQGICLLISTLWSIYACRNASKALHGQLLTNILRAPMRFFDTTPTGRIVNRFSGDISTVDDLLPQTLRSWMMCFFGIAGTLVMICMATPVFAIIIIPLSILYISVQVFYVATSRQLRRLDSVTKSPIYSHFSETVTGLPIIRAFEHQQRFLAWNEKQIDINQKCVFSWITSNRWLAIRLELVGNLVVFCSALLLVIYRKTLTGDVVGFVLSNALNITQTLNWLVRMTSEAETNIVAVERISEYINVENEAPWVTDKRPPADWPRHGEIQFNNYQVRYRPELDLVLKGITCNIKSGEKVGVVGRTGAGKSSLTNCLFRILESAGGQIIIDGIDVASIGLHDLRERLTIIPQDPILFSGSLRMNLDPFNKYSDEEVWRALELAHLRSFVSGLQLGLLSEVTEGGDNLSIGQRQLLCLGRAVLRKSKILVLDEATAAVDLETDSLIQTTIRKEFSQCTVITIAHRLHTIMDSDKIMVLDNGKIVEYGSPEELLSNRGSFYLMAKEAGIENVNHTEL

[2] = rat, in vivo
MRP2 [3] = biological target: T2, MRP2 (Homo sapiens, UniProt Q92887); format: biochemical; design: purchased BD Gentest Co. (Woburn, MA)
T2 sequence (Q92887 whole entry): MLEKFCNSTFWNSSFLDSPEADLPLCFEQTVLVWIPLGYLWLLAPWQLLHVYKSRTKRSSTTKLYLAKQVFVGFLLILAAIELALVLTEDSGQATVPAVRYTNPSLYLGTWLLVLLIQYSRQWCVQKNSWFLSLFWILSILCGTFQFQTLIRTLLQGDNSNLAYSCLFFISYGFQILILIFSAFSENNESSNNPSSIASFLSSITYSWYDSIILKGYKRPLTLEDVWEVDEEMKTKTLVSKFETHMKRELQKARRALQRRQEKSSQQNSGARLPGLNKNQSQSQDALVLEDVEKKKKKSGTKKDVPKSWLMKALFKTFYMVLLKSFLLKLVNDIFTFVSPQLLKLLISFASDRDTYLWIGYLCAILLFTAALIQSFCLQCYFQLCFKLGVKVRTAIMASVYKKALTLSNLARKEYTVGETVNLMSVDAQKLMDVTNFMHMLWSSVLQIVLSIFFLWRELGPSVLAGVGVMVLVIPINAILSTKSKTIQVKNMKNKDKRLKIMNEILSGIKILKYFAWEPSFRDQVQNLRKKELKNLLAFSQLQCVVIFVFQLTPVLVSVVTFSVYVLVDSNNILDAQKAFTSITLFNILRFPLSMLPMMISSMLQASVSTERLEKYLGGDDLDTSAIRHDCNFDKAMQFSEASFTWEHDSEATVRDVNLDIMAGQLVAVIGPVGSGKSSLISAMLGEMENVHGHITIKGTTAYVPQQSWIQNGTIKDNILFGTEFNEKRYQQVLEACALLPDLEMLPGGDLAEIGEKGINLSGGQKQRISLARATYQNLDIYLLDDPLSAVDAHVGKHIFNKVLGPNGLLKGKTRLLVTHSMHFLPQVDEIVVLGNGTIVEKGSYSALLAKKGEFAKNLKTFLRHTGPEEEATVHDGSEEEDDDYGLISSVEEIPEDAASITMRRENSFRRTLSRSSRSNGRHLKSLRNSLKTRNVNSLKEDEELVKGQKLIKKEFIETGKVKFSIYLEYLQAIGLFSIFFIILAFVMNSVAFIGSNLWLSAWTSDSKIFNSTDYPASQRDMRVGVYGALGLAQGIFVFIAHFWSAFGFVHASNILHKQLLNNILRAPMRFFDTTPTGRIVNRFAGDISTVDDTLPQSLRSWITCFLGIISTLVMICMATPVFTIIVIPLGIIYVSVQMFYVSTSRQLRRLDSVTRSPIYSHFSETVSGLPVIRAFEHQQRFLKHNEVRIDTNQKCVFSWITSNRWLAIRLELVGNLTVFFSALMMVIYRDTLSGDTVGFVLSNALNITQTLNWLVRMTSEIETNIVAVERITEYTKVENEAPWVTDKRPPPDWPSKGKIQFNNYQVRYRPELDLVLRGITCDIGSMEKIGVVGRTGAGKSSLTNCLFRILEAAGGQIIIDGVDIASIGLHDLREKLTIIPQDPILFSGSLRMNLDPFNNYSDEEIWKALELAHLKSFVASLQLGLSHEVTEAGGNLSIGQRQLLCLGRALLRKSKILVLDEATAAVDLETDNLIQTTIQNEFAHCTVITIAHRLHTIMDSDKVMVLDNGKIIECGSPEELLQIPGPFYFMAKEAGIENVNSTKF

P-gp [4] = system: P-gp
BCRP = biological target: T3, BCRP (Homo sapiens, UniProt Q9UNQ0)
T3 sequence (Q9UNQ0 1-655): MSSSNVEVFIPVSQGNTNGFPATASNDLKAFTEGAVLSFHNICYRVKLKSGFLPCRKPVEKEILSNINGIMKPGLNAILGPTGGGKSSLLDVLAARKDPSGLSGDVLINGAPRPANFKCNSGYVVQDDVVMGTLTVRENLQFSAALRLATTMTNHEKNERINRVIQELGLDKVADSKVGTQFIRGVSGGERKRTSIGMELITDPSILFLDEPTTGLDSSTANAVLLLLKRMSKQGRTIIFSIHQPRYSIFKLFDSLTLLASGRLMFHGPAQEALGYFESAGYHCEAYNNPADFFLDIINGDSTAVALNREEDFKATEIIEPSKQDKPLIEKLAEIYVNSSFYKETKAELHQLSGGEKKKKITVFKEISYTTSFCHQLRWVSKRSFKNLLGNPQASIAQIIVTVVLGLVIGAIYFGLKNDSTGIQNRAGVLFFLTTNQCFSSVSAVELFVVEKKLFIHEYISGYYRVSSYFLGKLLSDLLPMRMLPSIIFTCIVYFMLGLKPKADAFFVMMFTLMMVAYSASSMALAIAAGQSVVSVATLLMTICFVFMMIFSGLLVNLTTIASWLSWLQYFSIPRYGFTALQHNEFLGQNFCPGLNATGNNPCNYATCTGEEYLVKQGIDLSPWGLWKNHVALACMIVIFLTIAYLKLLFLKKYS

MDR1 = MDR1 (Homo sapiens, UniProt P08183)
[5] = system: sandwich-cultured rat hepatocytes (SCRH)
P-gp [6] = biological target: P-gp (Homo sapiens, UniProt P08183)
P-gp (Homo sapiens, UniProt P08183), sequence (P08183 whole entry): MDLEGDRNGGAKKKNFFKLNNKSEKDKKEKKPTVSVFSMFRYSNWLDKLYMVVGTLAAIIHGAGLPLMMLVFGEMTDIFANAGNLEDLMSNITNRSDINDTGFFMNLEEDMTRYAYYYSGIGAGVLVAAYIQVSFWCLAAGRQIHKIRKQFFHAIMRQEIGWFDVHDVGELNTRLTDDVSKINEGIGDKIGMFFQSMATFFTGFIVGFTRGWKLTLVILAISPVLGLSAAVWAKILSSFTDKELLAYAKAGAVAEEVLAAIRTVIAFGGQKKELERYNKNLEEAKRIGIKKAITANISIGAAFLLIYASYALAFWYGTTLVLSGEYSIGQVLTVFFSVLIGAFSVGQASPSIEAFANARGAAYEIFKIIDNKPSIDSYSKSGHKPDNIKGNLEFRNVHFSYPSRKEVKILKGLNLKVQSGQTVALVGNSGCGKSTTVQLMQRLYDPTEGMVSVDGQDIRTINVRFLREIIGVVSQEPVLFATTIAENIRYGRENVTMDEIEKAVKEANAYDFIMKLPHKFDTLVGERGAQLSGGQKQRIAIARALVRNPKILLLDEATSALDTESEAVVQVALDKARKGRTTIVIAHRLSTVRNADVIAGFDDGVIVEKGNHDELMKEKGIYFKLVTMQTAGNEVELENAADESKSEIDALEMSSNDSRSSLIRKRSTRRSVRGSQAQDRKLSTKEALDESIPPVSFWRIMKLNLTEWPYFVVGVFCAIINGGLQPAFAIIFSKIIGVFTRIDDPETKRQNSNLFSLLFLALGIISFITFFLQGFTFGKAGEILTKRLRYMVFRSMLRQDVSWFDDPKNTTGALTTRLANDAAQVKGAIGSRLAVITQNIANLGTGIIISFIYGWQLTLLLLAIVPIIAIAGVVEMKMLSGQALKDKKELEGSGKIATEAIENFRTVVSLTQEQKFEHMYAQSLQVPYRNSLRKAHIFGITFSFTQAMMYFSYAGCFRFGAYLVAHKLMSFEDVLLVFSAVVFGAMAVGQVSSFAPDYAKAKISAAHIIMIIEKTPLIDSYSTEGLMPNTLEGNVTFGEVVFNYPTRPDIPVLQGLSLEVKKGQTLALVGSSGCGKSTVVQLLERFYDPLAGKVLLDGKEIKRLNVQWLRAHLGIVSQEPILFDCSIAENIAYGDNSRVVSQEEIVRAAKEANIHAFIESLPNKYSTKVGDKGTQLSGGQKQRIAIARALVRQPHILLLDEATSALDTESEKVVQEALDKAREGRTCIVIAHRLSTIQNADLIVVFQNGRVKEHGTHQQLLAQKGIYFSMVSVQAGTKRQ

MRP2 [7] = biological target: T2, MRP2
[8] = mouse, in vivo
in vivo [9] = settings: rat
in vivo [10] = settings: mouse, po, 12 mg/kg
[11] = cited from earlier work

C[C@@H]1C[C@H]2[C@@H]3CCC4=CC(=O)C=C[C@]4(C)[C@@]3(F)[C@@H](O)C[C@]2(C)[C@@]1(O)C(=O)CO [Dexamethasone, dexamethasone]
TNP-G formation, Liver microsome (rat liver microsomes): 2219.3 ± 52.8 ng/mL | TNP-G formation, UGT1A1 (UGT1A1): 1542.4 ± 27.9 ng/mL

CN(Cc1cnc2nc(N)nc(N)c2n1)c1ccc(C(=O)N[C@@H](CCC(=O)O)C(=O)O)cc1 [Methotrexate, methotrexate]
BEI of TNP-G, % of the control cells (MRP2 [1]): 20% | CLbile, int of TNP-G decreased by (MRP2 [1]): 74.2%

CCCN(CCC)S(=O)(=O)c1ccc(C(=O)O)cc1 [Probenecid, probenecid]
24 h biliary excretion rate of TNP-G, % of the control level [2]: 74% | effect on TNP glucuronidation (rat liver microsomes): no significant effect | TNP-G formation, Liver microsome (rat liver microsomes; 60 min, 100 µM): 2191.5 ± 123.1 ng/mL | TNP-G formation, UGT1A1 (UGT1A1): 1527.5 ± 83.9 ng/mL | Vanadate-sensitive ATPase activities, MRP2 (MRP2 [3]): 5.7 ± 0.2 nmol/min/mg | BEI of TNP-G, % of the control cells (MRP2 [1]): 22.8% | CLbile, int of TNP-G decreased by (MRP2 [1]): 78.1%

O=c1c(O)c(-c2ccc(O)c(O)c2)oc2cc(O)cc(O)c12 [Quercetin, quercetin]
BEI of TNP, fold compared with the control (P-gp [4]; rat): 2.1 fold | CLbile, int of TNP, fold compared with the control (P-gp [4]; rat): 1.7 fold | TNP-G formation, Liver microsome (rat liver microsomes; 60 min, 100 µM): 2170.7 ± 33.6 ng/mL | TNP-G formation, UGT1A1 (UGT1A1): 1590.8 ± 30.5 ng/mL

O=C(O)c1cc(/N=N/c2ccc(S(=O)(=O)Nc3ccccn3)cc2)ccc1O [Sulfasalazine, sulfasalazine, reference compound]
Vanadate-sensitive ATPase activities, BCRP (BCRP): 32.2 ± 1.3 nmol/min/mg

COC12CCC3(CC1C(C)(O)CCc1cccs1)C1Cc4ccc(OC5OC(C(=O)O)C(O)C(O)C5O)c5c4C3(CCN1CC1CC1)C2O5 (stereo not shown) [TNP-G, thienorphine-3-glucuronide]
Vanadate-sensitive ATPase activities, MDR1 (MDR1): 4.2 ± 0.8 nmol/min/mg | Vanadate-sensitive ATPase activities, BCRP (BCRP): 5.8 ± 0.8 nmol/min/mg | CLbile, int From Eq. 2 [5]: 11.2 ± 2.7 mL/min/kg | CLbile,pred (plasma total concentration) relative to measured CLbile,obs [5]: ~1.3 fold | CLbile,pred From Eq. 3 [5]: 8.7 ± 1.7 mL/min/kg | CLbile,pred From Eq. 4 [5]: 0.2 ± 0.01 mL/min/kg | average BEI (biliary excretion index) [5]: 41.4 ± 2.6 | intracellular concentration, increase compared with the NC-siRNA group (P-gp [6]): not impacted | intracellular concentration, increase compared with the NC-siRNA group (MRP2 [7]): 2.1 fold | CLbile,obs From Eq.5 [2]: 6.9 ± 0.5 mL/min/kg | increase in AUC0-t compared to the NC-siRNA group [8]: 1.9 fold | increase in Cmax compared to the NC-siRNA group [8]: 2.7 fold | AUC(0-t) ([8]; po, 12 mg/kg): 202.7 ± 70.7 ng·h/mL | MRT ([8]; po, 12 mg/kg): 6.7 ± 1.7 h | t1/2 ([8]; po, 12 mg/kg): 6.1 ± 1.1 h | dose excreted (in vivo [9]): ≤ 28% | AUC(0-t) (in vivo [10]; AUC(0-t)): 108 ± 19.6 ng·h/mL | MRT (in vivo [10]; MRT): 5.7 ± 2 h | half-life (in vivo [10]; t1/2): 4.3 ± 1.7 h | fu,p (plasma unbound fraction) [11]: 0.02 | Transporter substrate finding, MRP2 (MRP2 [3]): MRP2 substrate | Vanadate-sensitive ATPase activities, MRP2 (MRP2 [3]): 4.1 ± 0.6 nmol/min/mg | CLbile,int of TNP-G (MRP2 [1]; dexamethasone 0 μM (control)): 4.2 ± 0.1 mL/min/kg | CLbile,int of TNP-G (MRP2 [1]; methotrexate 0 μM (control)): 3.1 ± 0.4 mL/min/kg | CLbile,int of TNP-G (MRP2 [1]; probenecid 0 μM (control)): 1.6 ± 0.03 mL/min/kg

COc1cc2c(cc1OC)CN(CCc1ccc(NC(=O)c3cc(OC)c(OC)cc3NC(=O)c3cnc4ccccc4c3)cc1)CC2 [Tariquidar, tariquidar]
BEI of TNP, % of the control cells (P-gp [4]): 34.5% | CLbile, int of TNP reduced to (P-gp [4]): 83.1% | cumulative bile excretion of TNP, % of the control level [2]: 45% | TNP-G formation, Liver microsome (rat liver microsomes; 60 min, 100 µM): 2154.6 ± 26.9 ng/mL | TNP-G formation, UGT1A1 (UGT1A1; 60 min, 100 µM): 1533.8 ± 25.4 ng/mL
